# How the values were obtained:
# [1] = Established insulin resistance in ob/ob mice; format: in vivo; settings: s.c. 0.5 or 2.5 mg/kg twice per day for two weeks, vs vehicle control
# Description: The effects of the MLK inhibitor CEP-1347 to alleviate established insulin resistance in mice is determined. Ten-week old ob/ob mice (Jackson Laboratory, Bar Harbor, Me.) are obese and display hyperinsulinemia, hyperglycemia, decreased insulin sensitivity, and impaired glucose disposal. Such mice are administered CEP-1347 subcutaneously (s.c.) at a dose of 0.5 or 2.5 mg/kg or vehicle control, twice per day for two weeks. Blood glucose concentrations are measured with a DEX® glucometer (Bayer, Tarrytown, N.Y.), and plasma insulin is measured by ELISA kit for rat insulin (Crystal Chem, Downers Grove, Ill.). Following day 14 of the treatment, glucose tolerance tests are performed by i.p. administration of glucose (1.8 g/kg) and measurement of blood glucose at t=15, 30, 60, 90, and 120 minutes. Insulin tolerance tests are performed similarly except with the injection of human insulin (1 unit per kg; Lilly Research Laboratories, Indianapolis).
# [2] = Development of insulin resistance in mice fed a high fat diet; format: in vivo; settings: male mice, high fat diet 16 weeks; s.c. 0.5 or 2.5 mg/kg twice per day; vs control treatment
# Description: The effects of the MLK inhibitor CEP-1347 on development of insulin resistance in mice is determined. Male mice are fed a high fat diet ad libitum (Diet F3282, Bio-Serv, Frenchtown, N.J.) or a standard diet for 16 weeks, with each group administered CEP-1347 subcutaneously (s.c.) at a dose of 0.5 or 2.5 mg/kg or vehicle control, twice per day. Body mass is recorded weekly, and blood samples are collected from the tail vain after an overnight fast after 6, 12, and 16 weeks on the diet. Blood glucose concentrations are measured with a DEX® glucometer (Bayer, Tarrytown, N.Y.), and plasma insulin is measured by ELISA kit for rat insulin (Crystal Chem, Downers Grove, Ill.). Glucose tolerance tests are performed by i.p. administration of glucose (1.8 g/kg) and measurement of blood glucose at t=15, 30, 60, 90, and 120 minutes in 16-week-old mice. Insulin tolerance tests are done similarly except with the injection of human insulin (1 unit per kg; Lilly Research Laboratories, Indianapolis). Untreated animals fed the high fat diet display hyperinsulinemia, hyperglycemia, decreased insulin sensitivity, and impaired glucose disposal.
# MLK3 = MLK3 T-loop (Thr-277, Ser-281) phosphorylation immunoblot in MEF; format: cell-based, mouse; settings: MEF pretreated with phorbol ester, then FFA
# Description: Wild-type, Mkk4^−/−, Mkk7^−/−, and Mkk4^−/− Mkk7^−/− MEF (Tournier et al., 2001, Genes Dev., 15:1419-1426) and wild-type and Mlk3^−/− MEF have been previously described (Brancho et al., 2005, Mol. Cell. Biol., 25:3670-3681). Wild-type and Pkcζ^−/− MEF have also been described (Leitges et al., 2001, Mol. Cell, 8:771-780). MEF and HEK293 cells (American Type Culture Collection) were cultured in Dulbecco's modified Eagle's medium (DMEM) supplemented with 10% fetal bovine serum (Invitrogen, Carlsbad, Calif.). HEK293 cells were transfected with Lipofectamine™ transfection reagent (Invitrogen, Carlsbad, Calif.). Sodium salts of fatty acids (Sigma-Aldrich, St. Louis, Mo.) were dissolved in PBS and mixed with free fatty acid (FFA)-free BSA (Roche). Stearic acid (Sigma-Aldrich, St. Louis, Mo.) was dissolved in ethanol and added to serum-free DMEM supplemented with 2% FFA-free BSA. […]
# Protein extracts were prepared using lysis buffer [20 mM Tris™ buffer (pH 7.4), 1% Triton™ X-100 detergent, 10% glycerol, 137 mM NaCl, 2 mM EDTA, 25 mM β-glycerophosphate, 1 mM sodium orthovanadate, 1 mM phenylmethylsulfonyl fluoride, and 10 μg/mL of aprotinin and leupeptin]. […] JNK activity was measured in an in vitro kinase assay using [γ-^32P]ATP and cJun as substrates (Whitmarsh and Davis, 2001, Methods Enzymol., 332:319-336). […]
# JNK = assay: FFA-stimulated JNK activation in MEF (in vitro kinase assay with cJun / immunoblot); format: cell-based, mouse
# Description: MEF and HEK293 cells (American Type Culture Collection) were cultured in Dulbecco's modified Eagle's medium (DMEM) supplemented with 10% fetal bovine serum (Invitrogen, Carlsbad, Calif.). […] Sodium salts of fatty acids (Sigma-Aldrich, St. Louis, Mo.) were dissolved in PBS and mixed with free fatty acid (FFA)-free BSA (Roche). Stearic acid (Sigma-Aldrich, St. Louis, Mo.) was dissolved in ethanol and added to serum-free DMEM supplemented with 2% FFA-free BSA. After 1 hour incubation in serum-free DMEM, cells were treated with 0.5 mM fatty acid/0.5% BSA for 1-16 hours at 37° C.
# Protein extracts were prepared using lysis buffer [20 mM Tris™ buffer (pH 7.4), 1% Triton™ X-100 detergent, 10% glycerol, 137 mM NaCl, 2 mM EDTA, 25 mM β-glycerophosphate, 1 mM sodium orthovanadate, 1 mM phenylmethylsulfonyl fluoride, and 10 μg/mL of aprotinin and leupeptin]. Extracts (50 μg of protein) were examined by immunoblot analysis with antibodies obtained from Cell Signaling (MLK3, phosphoThr277, Ser281-MLK3, ERK, phospho-ERK, p38, phospho-p38, AKT, phosphoSer473-AKT, PKCα, PKCδ, phospho-T-loop-PKC, and phospho-JNK), Transduction Labs (PKCε), PharMingen (JNK), Sigma (α-Tubulin), and Upstate Biotechnology (IRS1, phosphoSer307-IRS1 and phospho-MKK7). JNK activity was measured in an in vitro kinase assay using [γ-^32P]ATP and cJun as substrates (Whitmarsh and Davis, 2001, Methods Enzymol., 332:319-336). […]
# [3] = system: diacylglycerol-responsive PKC isoforms (α, δ, and ε); assay: Down-regulation of PKC isoforms in MEF by phorbol ester; format: cell-based, mouse; settings: 1 μM, 24 hours
# Description: FIG. 7C is a set of nine gels depicting expression of PKCα, PKCδ, PKCε, MLK3, phospho-MLK3 (MLK3-P), JNK, and Tubulin and in vitro kinase activity (KA) on cJun (cJun-P) of PKGζ^−/− MEF pretreated with 1 μM TPA for 24 hours and then treated with 0.5 mM palmitate for 16 hours.
# To test the requirement of PKC for FFA-stimulated MLK3 and JNK activation, the effect of PKC down-regulation was examined. In initial studies, siRNA was used to down-regulate the PKC isoforms expressed in MEF (PKCα, PKCδ, PKCε, and PKCζ). Down-regulation of individual PKC isoforms caused no change in FFA-induced MLK3 or JNK activation. […] Efficient simultaneous down-regulation of multiple PKC isoforms using siRNA was not obtained. An alternative approach was therefore used to obtain MEF lacking multiple PKC isoforms. […] The effect of pan-PKC deficiency was therefore examined by treating Pkcζ^−/− MEF with TPA (FIG. 7C).
structure (smiles),measurement,setting,value
CCSCc1ccc2c(c1)c1c3c(c4c5cc(CSCC)ccc5n5c4c1n2[C@H]1C[C@](O)(C(=O)OC)[C@]5(C)O1)CNC3=O [CEP-1347],hyperinsulinemia and hyperglycemia,[1],decreases hyperinsulinemia and hyperglycemia
same,insulin and glucose tolerance,[1],at least partially restores insulin and glucose tolerance
same,"hyperinsulinemia, hyperglycemia, decreased insulin sensitivity, impaired glucose disposal",[2],decreases these symptoms
"CCCCCCCCCCCCCC(=O)O[C@@H]1[C@@H](C)[C@@]2(O)[C@@H](C=C(CO)C[C@]3(O)C(=O)C(C)=C[C@@H]23)[C@@H]2C(C)(C)[C@]12OC(C)=O [TPA, Phorbol-12-Myristate-13-Acetate]",effect on FFA-induced MLK3 activation,MLK3,did not affect
same,effect on FFA-induced JNK activation,"JNK; MEF pretreated with phorbol ester, then FFA",did not affect
same,down-regulation of PKC isoforms,[3],"caused down-regulation of diacylglycerol-responsive PKC isoforms (α, δ, and ε)"
"CCCCCCCCCCCCCCCCCC(=O)O [stearate, stearic acid]",JNK activation,"JNK; MEF, 0.5 mM FFA, 16 hours",resulted in JNK activation
